# Patent US20260317319A1, “NOVEL ERGOLINES AND METHODS OF TREATING MOOD DISORDERS” (Gilgamesh Pharma Inc., priority 2023, published 2026)
# Where two headings read alike, the source gives them in different places.
# What was measured:
# in vitro [1] = type: in vitro ADME, rat; settings: RLM (male Sprague-Dawley) 0.50 mg/mL, NADPH 1 mM, 1 μM compound, pH 7.4, 37° C., 60 min; for microsomal CLint / half-life: rat, microsomes; for microsomal CLint: read-out: Intrinsic clearance (Clint); for half-life: read-out: half-life (t1/2)
# From the text: RLM Stability Pooled RLM from male Sprague-Dawley rats (Xenotech R1000) were used.
# 5-HT1B receptor = biological target: T1, 5-HT1B receptor (Homo sapiens, UniProt P28222); test: cAMP accumulation functional assay at 5-HT1B; type: cell-based; settings: agonist, cAMP accumulation; for Emax: max dose, read-out: 5-HT1B % Act @ Max Dose
# T1 construct: expressed in transfected cells
# T1 sequence (P28222 whole entry): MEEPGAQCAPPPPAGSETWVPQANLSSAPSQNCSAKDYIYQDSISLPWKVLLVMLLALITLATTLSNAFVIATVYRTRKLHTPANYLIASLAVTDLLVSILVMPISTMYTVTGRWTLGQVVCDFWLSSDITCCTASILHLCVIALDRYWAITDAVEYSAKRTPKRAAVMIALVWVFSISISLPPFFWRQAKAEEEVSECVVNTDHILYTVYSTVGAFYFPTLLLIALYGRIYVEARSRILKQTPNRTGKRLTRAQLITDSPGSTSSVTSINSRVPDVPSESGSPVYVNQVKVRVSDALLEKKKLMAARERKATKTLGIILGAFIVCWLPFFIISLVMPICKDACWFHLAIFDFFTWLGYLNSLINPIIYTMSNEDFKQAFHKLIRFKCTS
# Experimental: Functional Assay at 5-HT1B. Agonist activity at 5-HT1B was determined using a CAMP accumulation protocol at WuXi AppTec (Hong Kong) Limited according to their standard protocols. Briefly, stably transfected cells were plated in an OptiPlate-384 well plate, incubated at RT for 60 mins, and cAMP standard solution (800 nM, 10 μL) was added to the blank well. Then, 10 μL detection reagent was added to each well, the plate incubated for 60 mins at RT, and the plate read using En Vision.
# 5-HT2A receptor [2] = biological target: T2, 5-HT2A receptor (Homo sapiens, UniProt P28223); test: cell-based; type: cell-based; design: expressed in transfected cells; host or cells: HEK293, stably transfected; settings: Ca2+ flux; for Emax: HEK293, agonist, HEK293, max dose, read-out: 5-HT2A % Act @ Max Dose; for EC50: agonist, HEK293
# T2 sequence (P28223 whole entry): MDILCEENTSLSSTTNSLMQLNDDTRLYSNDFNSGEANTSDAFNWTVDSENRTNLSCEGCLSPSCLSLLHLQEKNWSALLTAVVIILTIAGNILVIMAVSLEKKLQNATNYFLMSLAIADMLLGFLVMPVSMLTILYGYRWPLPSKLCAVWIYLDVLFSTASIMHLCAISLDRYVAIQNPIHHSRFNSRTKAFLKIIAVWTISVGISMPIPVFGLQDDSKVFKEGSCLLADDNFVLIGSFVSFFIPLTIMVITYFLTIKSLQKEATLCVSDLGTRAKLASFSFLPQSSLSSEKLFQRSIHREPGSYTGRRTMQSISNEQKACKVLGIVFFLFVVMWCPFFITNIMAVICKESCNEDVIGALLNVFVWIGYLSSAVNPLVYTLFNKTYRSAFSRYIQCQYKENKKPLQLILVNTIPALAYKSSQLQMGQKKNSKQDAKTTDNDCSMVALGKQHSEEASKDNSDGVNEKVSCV
# Method in brief: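 Agonism measured as calcium flux on FLIPR Tetra. Receptor lines: HEK293 for 5-HT2A and 5-HT2B, CHO with Gα15 for 5-HT1A; dye loading with Fluo-4 Direct and probenecid (2.5 mM final) ran 50 min at 37 °C before compound addition and signal reading.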
# in vitro [3] = type: in vitro ADME, mouse; settings: MLM (male CD-1) 0.50 mg/mL, NADPH 1 mM, 1 μM compound, pH 7.4, 37° C., 60 min; for microsomal CLint / half-life: mouse, microsomes; for microsomal CLint: read-out: Intrinsic clearance (Clint); for half-life: read-out: half-life (t1/2)
# From the text: MLM Stability Pooled MLM from male CD-1 mice (BIOIVT M00501) were used.
# 5-HT1A receptor = biological target: T3, 5-HT1A receptor (Homo sapiens, UniProt P08908); test: cell-based; settings: agonist, Ca2+ flux; for Emax: CHO, CHO cells with Gα15, max dose, read-out: 5-HT1A % Act @ Max Dose; for EC50: CHO cells with Gα15
# T3 construct: expressed in transfected cells; host or cells: CHO cells, stably transfected
# T3 sequence (P08908 1-422): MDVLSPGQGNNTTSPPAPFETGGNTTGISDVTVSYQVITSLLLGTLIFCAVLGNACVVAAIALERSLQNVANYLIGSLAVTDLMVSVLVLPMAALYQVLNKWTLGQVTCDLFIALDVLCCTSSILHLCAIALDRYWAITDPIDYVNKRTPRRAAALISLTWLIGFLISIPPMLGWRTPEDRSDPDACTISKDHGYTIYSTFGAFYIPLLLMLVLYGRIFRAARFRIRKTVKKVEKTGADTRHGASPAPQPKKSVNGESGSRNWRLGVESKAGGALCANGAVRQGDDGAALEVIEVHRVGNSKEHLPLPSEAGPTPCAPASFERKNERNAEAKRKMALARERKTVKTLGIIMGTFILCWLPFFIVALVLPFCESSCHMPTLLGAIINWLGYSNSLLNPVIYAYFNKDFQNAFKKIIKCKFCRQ
# Method in brief: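 Using HEK293 lines for the 5-HT2 subtypes and Gα15-coupled CHO cells for 5-HT1A, compounds were tested as agonists. Fluorescent Ca2+ signal followed dye loading (Fluo-4 Direct, 2.5 mM final probenecid, 50 min, 37 °C).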
# 5-HT2B receptor = biological target: T4, 5-HT2B receptor (Homo sapiens, UniProt P41595); test: cell-based; type: cell-based; settings: Ca2+ flux; for Emax: HEK293, agonist, HEK293, max dose, read-out: 5-HT2B % Act @ Max Dose; for EC50: agonist, HEK293
# T4 construct: expressed in transfected cells; host or cells: HEK293, stably transfected
# T4 sequence (P41595 whole entry): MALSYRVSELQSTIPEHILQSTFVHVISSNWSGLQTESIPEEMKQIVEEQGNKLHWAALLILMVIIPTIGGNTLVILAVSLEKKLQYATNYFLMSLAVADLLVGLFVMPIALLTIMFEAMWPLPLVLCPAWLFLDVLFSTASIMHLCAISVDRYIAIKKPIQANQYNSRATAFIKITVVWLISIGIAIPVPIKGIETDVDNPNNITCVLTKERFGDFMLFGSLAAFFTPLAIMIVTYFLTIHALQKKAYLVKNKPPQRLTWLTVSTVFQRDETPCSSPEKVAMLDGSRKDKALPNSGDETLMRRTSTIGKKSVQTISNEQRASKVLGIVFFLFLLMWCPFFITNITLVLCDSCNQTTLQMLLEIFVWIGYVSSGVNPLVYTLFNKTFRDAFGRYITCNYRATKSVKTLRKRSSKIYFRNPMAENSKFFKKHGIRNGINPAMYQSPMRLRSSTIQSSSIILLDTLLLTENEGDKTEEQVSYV
# Method in brief: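 FLIPR Tetra fluorescence read-out of calcium flux after compound addition. Receptor-expressing stable lines were used (HEK293 for 2A/2B; CHO with Gα15 for 1A), dye-loaded with Fluo-4 Direct and 2.5 mM final probenecid, 50 min at 37 °C.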
# in vitro [4] = type: in vitro ADME, human; settings: HLM 0.50 mg/mL, NADPH 1 mM, 1 μM compound, pH 7.4, 37° C., 60 min; for microsomal CLint / half-life: human, microsomes; for microsomal CLint: read-out: Intrinsic clearance (Clint); for half-life: read-out: half-life (t1/2)
# 5-HT2A receptor [5] = biological target: T2, 5-HT2A receptor; test: biochemical; type: binding; design: expressed in transfected cells; host or cells: HEK293, stably transfected; settings: for Ki: [3H]ketanserin 1 nM, HEK293 stable cell line, 1 h, 25 °C; for potency in receptor binding: radioligand binding, 5-HT2A
# Method in brief: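 Test compounds competed with [^3H]ketanserin for receptor binding, and affinity was derived from the radioligand displacement.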
# 5-HT2A receptor [6] = biological target: T2, 5-HT2A receptor; test: cell-based; type: cell-based; settings: agonist, beta-arrestin recruitment; for EC50: PathHunter, read-out: 5-HT2A Arrestin EC50; for Emax: max dose, read-out: 5-HT2A Arrestin % Act @ Max Dose
# Experimental: Arrestin Functional Assay at 5-HT2A. Recruitment of beta-arrestin was determined using a PathHunter assay at Eurofins DiscoverX (Fremont, CA) according to their standard protocols. PathHunter GPCR beta-arrestin assays take advantage of DiscoverX's proprietary Enzyme Fragment Complementation technology. The GPCR is fused in frame with a small enzyme donor fragment ProLink™ (PK) and co-expressed in cells stably expressing a fusion protein of beta-arrestin and the larger, N-terminal deletion mutant of beta-galactosidase. Activation of the GPCR (5-HT2A receptor in this case) stimulates binding of beta-arrestin to the PK-tagged GPCR and forces complementation of the two enzyme fragments, resulting in the formation of an active beta-galactosidase enzyme. This interaction leads to an increase in enzyme activity that can be measured using chemiluminescent PathHunter Detection Reagents. Briefly, PathHunter cells expressing 5-HT2A receptors were seeded in a volume of 20 μL into 384-well plates and incubated at 37° C. for the appropriate time prior to testing. […] Plates were then imaged on a microplate reader and the agonist activity was calculated using the following formula: % Activity=100%×(mean RLU of test sample-mean RLU of vehicle control)/(mean MAX control ligand-mean RLU of vehicle control), where RLU=relative light units.
Compound,microsomal CLint (in vitro [1]) [µL/min/mg],half-life (in vitro [1]) [min],EC50 (5-HT1B receptor) [nM],Emax (5-HT1B receptor) [%],Emax (5-HT2A receptor [2]) [%],EC50 (5-HT2A receptor [2]) [nM],microsomal CLint (in vitro [3]) [µL/min/mg],half-life (in vitro [3]) [min],Emax (5-HT1A receptor) [%],EC50 (5-HT1A receptor) [µM],Emax (5-HT2B receptor) [%],EC50 (5-HT2B receptor) [µM],microsomal CLint (in vitro [4]) [µL/min/mg],half-life (in vitro [4]) [min],Ki (5-HT2A receptor [5]) [nM],potency in receptor binding (5-HT2A receptor [5]),Intrinsic clearance (Clint) (in vitro [1]) [µL/min/mg],half-life (t1/2) (in vitro [1]) [min],Intrinsic clearance (Clint) (in vitro [3]) [µL/min/mg],half-life (t1/2) (in vitro [3]) [min],other results
"CCN(CC)C(=O)[C@@H]1C=C2c3cccc4[nH]cc(c34)C[C@H]2N(Cc2ccc(F)c(OC)c2)C1 [Compound 60, (6aR,9R)—N,N-diethyl-7-(4-fluoro-3-methoxybenzyl)-4,6,6a,7,8,9-hexahydroindolo[4,3-fg]quinoline-9-carboxamide]",152,9.1,> 10000,31,102,1380,295,4.7,53.1,36.4,23.8,> 100,69.1,20.1,6.18,,,,,,
"CCCN1C[C@H](C(=O)N(CC)CC)C=C2c3cccc4c3C(CN4)C[C@H]21 (mixture of isomers) [Compound 36, (6aR,9R)—N,N-diethyl-7-propyl-4,5,5a,6,6a,7,8,9-octahydroindolo[4,3-fg]quinoline-9-carboxamide]",,,,97.5,77.5,,,,88.7,,111,,,,,reduced in potency compared to their dehydro counterparts,,,,,
"CCN(CC)C(=O)[C@@H]1C=C2c3cccc4[nH]cc(c34)C[C@H]2N(Cc2cccnc2)C1 [Compound 55, (6aR,9R)—N,N-diethyl-7-(pyridin-3-ylmethyl)-4,6,6a,7,8,9-hexahydroindolo[4,3-fg]quinoline-9-carboxamide]",103,13.4,575,82.5,87.8,158,543,2.6,108,4.09,25.7,> 100,56,24.8,39.7,,,,,,
"CCN(CC)C(=O)[C@@H]1C=C2c3cccc4[nH]cc(c34)C[C@H]2N(CCc2ccc(OC)cc2)C1 [Compound 21, (6aR,9R)—N,N-diethyl-7-(4-methoxyphenethyl)-4,6,6a,7,8,9-hexahydroindolo[4,3-fg]quinoline-9-carboxamide]",,,,79.1,51.2,,,,8.2,,1.73,,,,,,323.2,4.3,717.4,1.9,EC50 (5-HT2A receptor [6]): 5.85 nM; Emax (5-HT2A receptor [6]): 93.7%; Intrinsic clearance (Clint) (in vitro [4]): 367.7 µL/min/mg; half-life (t1/2) (in vitro [4]): 3.8 min
"CCN(CC)C(=O)[C@@H]1C=C2c3cccc4c3C(CN4)C[C@H]2N(C)C1 (mixture of isomers) [Compound 37, (6aR,9R)—N,N-diethyl-7-methyl-4,5,5a,6,6a,7,8,9-octahydroindolo[4,3-fg]quinoline-9-carboxamide]",,,,90.7,76.4,,,,109,,24.1,,,,,reduced in potency compared to their dehydro counterparts,,,,,
"CCN(CC)C(=O)[C@@H]1C=C2c3cccc4[nH]cc(c34)C[C@H]2N(CCc2cccc(OC)c2)C1 [Compound 20, (6aR,9R)—N,N-diethyl-7-(3-methoxyphenethyl)-4,6,6a,7,8,9-hexahydroindolo[4,3-fg]quinoline-9-carboxamide]",,,,34.6,77.2,,,,3.85,,3.6,,,,,,1147.6,1.2,1548.2,0.9,EC50 (5-HT2A receptor [6]): 1.79 nM; Emax (5-HT2A receptor [6]): 83.5%; Intrinsic clearance (Clint) (in vitro [4]): 649.2 µL/min/mg; half-life (t1/2) (in vitro [4]): 2.1 min
